Values of other authors in patent US20060233725A1, “Non-Endocrine Disrupting Cytoprotective UV Radiation Resistant Substance” (priority 2001, published 2006).

System: cancer cells
Conditions: recent studies on endocrine disrupting agents in sunscreen formulations

Row | effect on growth of cancer cells | Compound
1 | made cancer cells grow more rapidly | CCCCC(CC)COC(=O)c1ccc(N(C)C)cc1 (centres unmarked) [octyl-dimethyl-PABA]
2 | made cancer cells grow more rapidly | COc1ccc(C(=O)c2ccccc2)c(O)c1 [benzophenone-s]
3 | made cancer cells grow more rapidly | CC1CC(OC(=O)c2ccccc2O)CC(C)(C)C1 (centres unmarked) [homosalate]
4 | made cancer cells grow more rapidly | Cc1ccc(C=C2C(=O)C3(C)CCC2C3(C)C)cc1 (centres unmarked) [4-methylbenzylidene camphor]
5 | made cancer cells grow more rapidly | CCCCC(CC)COC(=O)C=Cc1ccc(OC)cc1 (centres unmarked) [octyl methoxycinnamate]
